# Laboratory results: ChEMBL document CHEMBL1151205, “Terpene isocyanides, isocyanates, and isothiocyanates from the Okinawan marine sponge Stylissa sp” (J Nat Prod, 2004)
# pIC50: −log10 of the molar value.
# Test system: HeLa
# Experiment: Cytotoxicity against human HeLa cells by WST-8 assay
# Type: functional, cell-based
row,SMILES,pIC50
1,CC1=C[C@@H]2[C@@H](CC1)[C@@](C)(N=C=S)CC[C@H]2C(C)C (relative stereo),4.13
2,[C-]#[N+][C@@]12CC[C@H](C)C3=C(C=C(C)C)C[C@H](C)[C@@H](CC[C@@H]1C)[C@@H]32 (relative stereo),4.95
3,C[C@H]1CC[C@]23[C@H]1[C@H]2[C@@H](C(C)(C)N=C=S)CC[C@@H]3C (relative stereo),4.24
4,[C-]#[N+][C@@]1(C)CC[C@H]2[C@@H]3[C@@H](C(C)=CC[C@@H]31)[C@@H](C=C(C)C)C[C@@H]2C (relative stereo),4.70
5,C[C@H]1C[C@H]2CC(C)(C)CC3=CC[C@@]4(N=C=O)[C@@H]([C@@H]1CC[C@@H]4C)[C@@H]32,4.42
6,C[C@H]1C[C@H]2CC(C)(C)CC3=CC[C@@]4(N=C=S)[C@@H]([C@@H]1CC[C@@H]4C)[C@@H]32,4.05
